# Changes are numbered by the printed parent chain. Like-named read-outs stand apart in the source and are kept apart here.
# What was measured:
# AR in VCaP cells = target: T1, AR in VCaP cells (Homo sapiens, UniProt P10275); test: Assay on degradation activity for AR in VCaP cells (HTRF human androgen receptor detection kit); format: cell-based; conditions: 24 h incubation
# T1 construct: Assay on Degradation Activity for AR in VCaP Cells; endogenous in cells; host or cells: VCaP cells
# T1 sequence (P10275 1-920): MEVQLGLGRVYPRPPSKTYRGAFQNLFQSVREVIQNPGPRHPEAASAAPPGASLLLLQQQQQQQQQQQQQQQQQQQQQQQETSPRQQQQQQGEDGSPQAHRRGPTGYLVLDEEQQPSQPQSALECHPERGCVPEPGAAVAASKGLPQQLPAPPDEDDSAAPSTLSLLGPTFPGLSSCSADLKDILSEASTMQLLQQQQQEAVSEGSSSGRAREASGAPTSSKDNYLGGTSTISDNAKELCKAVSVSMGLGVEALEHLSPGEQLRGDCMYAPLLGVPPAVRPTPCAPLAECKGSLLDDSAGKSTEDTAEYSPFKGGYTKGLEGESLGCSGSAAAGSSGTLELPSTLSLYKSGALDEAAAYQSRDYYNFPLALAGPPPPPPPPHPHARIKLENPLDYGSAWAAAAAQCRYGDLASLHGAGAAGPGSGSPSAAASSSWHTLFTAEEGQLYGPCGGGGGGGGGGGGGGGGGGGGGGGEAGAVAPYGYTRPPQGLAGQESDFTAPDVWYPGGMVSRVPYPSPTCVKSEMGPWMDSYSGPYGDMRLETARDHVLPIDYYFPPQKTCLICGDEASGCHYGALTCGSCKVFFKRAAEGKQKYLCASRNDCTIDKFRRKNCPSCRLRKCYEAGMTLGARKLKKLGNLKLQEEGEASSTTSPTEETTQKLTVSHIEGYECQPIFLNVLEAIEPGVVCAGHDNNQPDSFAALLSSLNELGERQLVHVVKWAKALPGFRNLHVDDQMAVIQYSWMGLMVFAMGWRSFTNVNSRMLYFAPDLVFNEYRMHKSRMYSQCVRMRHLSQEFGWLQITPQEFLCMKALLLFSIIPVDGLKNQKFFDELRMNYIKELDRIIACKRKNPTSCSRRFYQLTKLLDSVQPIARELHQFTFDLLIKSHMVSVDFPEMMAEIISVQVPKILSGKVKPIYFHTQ
# Procedure, shortened: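 VCaP cells seeded overnight in 2% CSS-FBS phenol red-free DMEM, then treated 24 h with compound at 1000 nM–0.977 nM final, in duplicate. Lysates probed with AR Eu cryptate/d2 antibody HTRF (2 h, 25° C., 665/620 nm); DC50 and Dmax from four-parameter dose-response fits.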
# AR in LNCaP cells = target: T2, AR in LNCaP cells (Homo sapiens, UniProt P10275, T878A); test: Assay on degradation activity for AR in LNCaP cells (HTRF human androgen receptor detection kit); format: cell-based; conditions: 24 h incubation
# T2 construct: Assay on Degradation Activity for AR in LNCaP Cells; endogenous in cells; host or cells: LNCaP cells
# T2 sequence (P10275 1-920 T878A): T1 sequence (P10275 1-920) with T878A
# Procedure, shortened: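 LNCaP cells seeded in 2% CSS-FBS phenol red-free 1640 medium overnight, then treated in duplicate with 500 nM–0.488 nM compound for 24 h. AR in lysates quantified by HTRF (Eu cryptate/d2 antibodies, 2 h, 25 °C, 665/620 nm); DC50 and Dmax from four-parameter fits.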
# VCaP cells = test: Assay on inhibitory activity for VCaP cell proliferation (CCK-8); format: cell-based; conditions: Homo sapiens, 168 h incubation
# Procedure, shortened: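 VCaP cells seeded at 1×10^5 cells/mL in phenol red-free DMEM with 5% charcoal-stripped FBS, treated in duplicate at 10000–0.61 nM final. After 168 h incubation, viability was read with CCK-8.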
# [1] = In vitro stability in liver microsome; format: in vitro ADME; conditions: human liver microsome 0.5 mg/mL, NADPH, 37° C.
# Protocol: Liver microsome incubation samples (species: human, monkey, rat, and mouse) were prepared by mixing a PBS buffer (pH=7.4), a liver microsome solution (0.5 mg/mL), a test compound, and an NADPH+MgCl2 solution and incubated at 37° C. and 300 rpm for 1 h. Zero-hour samples were prepared by mixing a PBS buffer (pH=7.4), a liver microsome solution (0.5 mg/mL), and a test compound. An acetonitrile solution containing an internal standard was added to the samples, and supernatants were prepared by protein precipitation, diluted, and then assayed by LC/MS/MS.
# LNCaP cells = test: Assay on inhibitory activity for LNCaP cell proliferation (CCK-8); format: cell-based; conditions: Homo sapiens, 168 h incubation
# Procedure, shortened: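 Cells seeded at 1×10^5 cells/mL in phenol red-free 1640 with 2% CSS-FBS, treated at final 10000 nM-0.61 nM in duplicate. After 168 h incubation, viability read with CCK-8.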
# Mouse pharmacokinetics = format: in vivo, ICR mice; conditions: ICR, mouse, plasma; for AUC: read-out: AUC
# Protocol: ICR mice weighing 18-22 g were randomized into groups of 9 after 3-5 days of acclimatization, and then intragastrically given the test compound solution at a dose of 10 mg/kg and intravenously injected with the test compound solution at a dose of 1 mg/kg.
# Blood sampling time points for the intragastrical administration group were 15 min, 0.5 h, 1 h, 2 h, 3 h, 4 h, 6 h, 8 h, 10 h, and 24 h, and blood sampling time points for the intravenous injection administration group were […], 15 min, 0.5 h, 1 h, 2 h, 4 h, 6 h, 8 h, 10 h, and 24 h; blood was collected from the orbit to prepare plasma samples to be tested. 30 μL of each of the plasma samples to be tested and a standard curve sample were taken, and an acetonitrile solution containing an internal standard was added. Supernatants were obtained by protein precipitation, diluted, and then assayed by LC/MS/MS. Pharmacokinetic parameters were fitted using a non-compartmental model (see Table 6).
# [2] = po, 10 mg/kg, Mouse i.g. 10 mpk
Compound,DC50 (AR in VCaP cells) [nM],DC50 (AR in LNCaP cells; HTRF) [nM],Dmax (AR in LNCaP cells; maximum degradation rate) [%],IC50 (VCaP cells) [nM],Human liver microsome Residuals at 60 min (%) [1] [%],"IC50 (VCaP cells; VCaP, 168 h) [nM]",IC50 (LNCaP cells) [nM],"clearance (Mouse pharmacokinetics; iv, 1 mg/kg, Mouse i.v. 1 mpk) [mL/min/kg]","half-life (Mouse pharmacokinetics; iv, 1 mg/kg, Mouse i.v. 1 mpk) [h]","AUC (Mouse pharmacokinetics; iv, 1 mg/kg, Mouse i.v. 1 mpk) [ng·h/mL]",half-life (Mouse pharmacokinetics; [2]) [h],"bioavailability (Mouse pharmacokinetics; po, 10 mg/kg, Mouse i.g. 10 mpk vs i.v. 1 mpk) [%]",AUC (Mouse pharmacokinetics; [2]) [ng·h/mL],"Cmax (Mouse pharmacokinetics; po, 10 mg/kg, Mouse i.g. 10 mpk, read-out: Cmax) [ng/mL]"
N#Cc1ccc(O[C@H]2CC[C@H](NC(=O)c3ccc(N4CCC(N5CC(CN6Cc7ccc8c(C9CCC(=O)NC9=O)noc8c7C6)C5)CC4)nn3)CC2)cc1Cl (stereo partly shown) [Compound 90],≤ 1,≤ 20,> 80,< 10,>85,,,,,,,,,
N#Cc1ccc(O[C@H]2CC[C@H](NC(=O)c3ccc(N4CCC(CN5Cc6ccc7c(C8CCC(=O)NC8=O)noc7c6C5)CC4)nn3)CC2)cc1Cl (stereo partly shown) [Compound 17],≤ 1,,,,>85,< 1000,< 1000,4.72,7.28,3160,6.82,46,14600,1160
